# Source: ChEMBL document CHEMBL5380873, “Discovery of Potent Tetrazole Free Fatty Acid Receptor 2 Antagonists” (J Med Chem, 2023)
# Activity calls are given as the source filed them. The rule behind the calls is not given here.
# Assays:
# [1] = molecular target: T1, Free fatty acid receptor 2 (Homo sapiens) (UniProt O15552); test: Potency index, ratio of CATPB pIC50 to test compound pIC50 for antagonist activity at human FFA2
# T1 sequence (whole entry): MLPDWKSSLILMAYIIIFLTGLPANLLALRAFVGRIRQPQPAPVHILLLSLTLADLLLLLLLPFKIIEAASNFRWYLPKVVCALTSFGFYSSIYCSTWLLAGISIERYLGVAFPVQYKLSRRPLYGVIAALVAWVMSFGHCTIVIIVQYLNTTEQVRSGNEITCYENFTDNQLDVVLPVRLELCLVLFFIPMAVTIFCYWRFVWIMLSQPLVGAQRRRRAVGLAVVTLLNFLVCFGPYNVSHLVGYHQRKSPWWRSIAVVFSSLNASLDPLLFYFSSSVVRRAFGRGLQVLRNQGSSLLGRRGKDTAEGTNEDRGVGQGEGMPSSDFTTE
# [2] = molecular target: T1, Free fatty acid receptor 2 (Homo sapiens); test: (§1) Antagonist activity at human FFA2 expressed in Flp-In-T-REx-293 cells co-expressing eYFP assessed as inhibition of [35S]GTPgammaS incorporation preincubated for 15 mins followed by [35S]GTPgammaS addition and measured after 60 min by liquid scintillation spectroscopic analysis; format: functional, cell-based; settings: time 75.0 min
# [3] = molecular target: T1, Free fatty acid receptor 2 (Homo sapiens); test: (§2) Antagonist activity at human FFA2 expressed in Flp-In-T-REx-293 cells co-expressing eYFP assessed as inhibition of propionate-induced cAMP accumulation preincubated with compound for 20 mins followed by propionate addition and measured after 25 mins in the presence of forskolin by TR-FRET analysis; format: functional, cell-based; settings: time 45.0 min
# [4] = molecular target: T2, Free fatty acid receptor 2 (Homo sapiens, UniProt O15552); test: as §1; format: functional, cell-based
# T2 sequence (O15552 whole entry): T1 sequence (whole entry)
# [5] = molecular target: T2, Free fatty acid receptor 2; test: as §2; format: functional, cell-based
# [6] = molecular target: T2, Free fatty acid receptor 2; test: Inverse agonist activity at human GPR43 expressed in Glosensor cells assessed as increase in forskolin-induced cAMP level preincubated with compound for 5 mins followed by forskolin addition and measured after 15 mins by luminescence based analysis; format: functional, cell-based
# [7] = Chemical stability of compound in PBS buffer at pH 7.4 measured after 10 days by HPLC analysis; format: physicochemical; settings: time 10 day, read-out: Stability
# [8] = molecular target: T3, Free fatty acid receptor 3 (Homo sapiens) (UniProt O14843); test: as §2, with “FFA3” for “FFA2”, “accumulation at 10 uM” for “accumulation”; format: functional, cell-based; settings: time 45.0 min
# T3 sequence (whole entry): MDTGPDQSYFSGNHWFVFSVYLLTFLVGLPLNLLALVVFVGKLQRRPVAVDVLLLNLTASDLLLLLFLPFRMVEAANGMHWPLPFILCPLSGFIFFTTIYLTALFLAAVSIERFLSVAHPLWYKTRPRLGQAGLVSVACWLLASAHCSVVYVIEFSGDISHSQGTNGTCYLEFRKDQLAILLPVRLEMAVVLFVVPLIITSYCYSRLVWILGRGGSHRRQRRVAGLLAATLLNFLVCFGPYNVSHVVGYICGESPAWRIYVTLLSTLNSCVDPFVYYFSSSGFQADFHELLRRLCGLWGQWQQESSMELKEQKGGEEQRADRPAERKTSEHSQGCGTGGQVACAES
# Neutrophil [9] = test: Inhibition of propionate-induced cell migration in human peripheral neutrophil at 0.4 to 1 uM preincubated with compound for 30 mins followed by propionate addition and measured after 1 hrs by ATPlite luminescence assay; format: functional, cell-based; settings: dose 0.4-1 µM, time 90.0 min
# Neutrophil [10] = test: (§3) Inhibition of propionate-induced respiratory burst in human peripheral neutrophil assessed as effect on luminol-induced chemiluminescence at 0.4 to 1 uM preincubated with compound for 30 mins followed by propionate addition and measured immediately by microplate reader based analysis; format: functional, cell-based; settings: dose 0.4-1 µM
# Neutrophil [11] = test: Inhibition of fMLP-induced cell migration in human peripheral neutrophil at 10 uM; format: functional, cell-based
# Neutrophil [12] = test: Inhibition of fMLP-induced respiratory burst in human peripheral neutrophil at 10 uM; format: functional, cell-based
# [13] = as §3, with “luminol-amplifies” for “luminol-induced”, “chemiluminescence by measuring fold change” for “chemiluminescence”, “analysis relative to CATPB” for “analysis”; format: functional; settings: dose 0.4-1 µM, 0.5 h
smiles,measurement,setting,value
Cc1cccc(CC(=O)N[C@@H](Cc2ccc(C(F)(F)F)cc2)Cc2nnn[nH]2)c1,Ratio pIC50,[1],> 10
O=C(Cc1cccc(-c2nnn[nH]2)c1)N[C@@H](Cc1ccc(C(F)(F)F)cc1)Cc1nnn[nH]1,Activity,[2],inactive
same,Activity,[3],inactive
O=C(Cc1cnc[nH]1)N[C@@H](Cc1ccc(C(F)(F)F)cc1)Cc1nnn[nH]1,Activity,[2],inactive
same,Activity,[3],inactive
N#Cc1cccc(CC(=O)N[C@@H](Cc2ccc(C(F)(F)F)cc2)Cc2nnn[nH]2)c1,pIC50,[4],> 5
same,pIC50,[5],> 5
CC1=C(C(=O)Nc2cc(C)cc(C)c2)C(c2ccc(N(C)C)cc2)NC(=O)N1 (stereo unspecified),IC50,[6],~10 µM
O=C(Cc1cncc(Br)c1)N[C@@H](Cc1ccc(C(F)(F)F)cc1)Cc1nnn[nH]1,remaining at 240 h,[7],> 95%
COc1cccc(CC(=O)N[C@@H](Cc2ccc(C(F)(F)F)cc2)Cc2nnn[nH]2)c1,remaining at 240 h,[7],> 95%
same,Activity,[8],inactive
same,inhibition,Neutrophil [9],Active
same,inhibition,Neutrophil [10],Active
same,inhibition,Neutrophil [11],inactive
same,inhibition,Neutrophil [12],inactive
same,fold change (FC),[13],8
